In US10562910B2, “Nitrogen-containing tricyclic compounds and uses thereof in medicine” (SUNSHINE LAKE PHARMA CO., LTD., priority 2016, dated 2020):
Each block holds one compound with its values, some of them ahead of it.

Columns and labels:
[1] = target: FXR ligand binding domain (LBD) (Homo sapiens (Human), UniProt Q96RI1); assay: Mammalian one hybrid (M1H) GAL4 reporter gene assay in HEK293 cells; format: cell-based; settings: GAL4 reporter gene test
From the text: Mammalian one hybrid technology is also called chimeric receptor gene assay. Based on the GAL4 chimera receptor assay, the activity of compounds which mediated activation of FXR was detected by dual luciferase reporter assay. The methods were as follows: cDNA encoding the FXR ligand binding domain (LBD), the yeast GAL4 DNA binding domain (DBD) and the Renilla luciferase DNA were fused to construct a chimera expression plasmid pBIND-FXR (Promega). […] The plasmid pG5Luc (Promega) was used as the reporter plasmid, containing the GAL4 upstream activation sequence (UAS) and the Firefly luciferase receptor gene. All GAL4 reporter gene assays were done in HEK293 cells. Cells were cultured at 37° C., 5% CO2 under humidified conditions. […] The contents were mixed completely and incubated the mixtures for 15 minutes at room temperature. The volume of the transfection mixture was 2.5 μl/well. Trypsinized and diluted the cell slurry at a density of […] (100 μl/well for 96-well plate). Then added required volume of transfection mixture prepared previously into the cell slurry, and dispensed 100 μl/well of the cell slurry into the 96-well plate and incubated the plate for 24 hours at 37° C., 5% CO2 under humidified conditions. Compounds prediluted in complete medium were added into each well and then incubated at 37° C., 5% CO2 under humidified conditions for 18 hours. The firefly and renilla luciferase signal was assayed by Promega's Dual Luciferase Reporter Assay System.
The % Activation value was calculated by the following equation: Activation %=[(X−Min)/(Max−Min)]×100%. “X” is the “F/R” value from compounds. “F/R” means “Firefly/Renilla”. “Min” is the mean “F/R” value from no compound control. “Max” is the mean “F/R” value from reference compound control. Finally, the EC50 value of each compounds were calculated by GraphPrism 5.0.

[2] = Pharmacokinetics test in SD rats; format: in vivo; settings: rat, plasma, male SD rats
Procedure: Example 22 Pharmacokinetics Test
Experimental animals: six healthy adult male SD rats (purchased from Hunan SJA Laboratory Animal Co. Ltd.) were divided into two groups, three rats in each group, and the two groups were given intravenous injection and oral administration respectively.
Drug preparation: a quantity of a compound of the present invention was weighed, and 5% DMSO, 10% Kolliphor HS15 and 85% saline (0.9%) were added to give target concentrations of the compound solution.
Administration and sample collection: animals were fasted for 12 h before administration, and fed at the time point of 3 hours after the administration. SD rats of one group were given intravenous injection (IV, 1 mg/kg) via hind legs and SD rats of the other group were given oral administration (PO, 5 mg/kg) respectively. Then blood was collected in the rat tail vein at the time point of 0, 0.083, 0.25, 0.5, 1, 2, 4, 6, 8, 24 h respectively, and the blood volume was about 200-400 μL/time point. After the collection of whole blood at each time point, the collected blood was set in K2EDTA anticoagulant tube, and the tube was placed in the incubator with ice packs. All samples were centrifuged for 5 min at 4° C. at 4600 r/min within 15 min. Plasma was separated and collected. The concentrations of different compounds in the plasma of the rats after administration were measured using LC/MS/MS method, and the pharmacokinetic parameters were calculated according to the curve of the drug concentration-time.

Chain of FXR ligand binding domain (LBD) (Q96RI1 261-481): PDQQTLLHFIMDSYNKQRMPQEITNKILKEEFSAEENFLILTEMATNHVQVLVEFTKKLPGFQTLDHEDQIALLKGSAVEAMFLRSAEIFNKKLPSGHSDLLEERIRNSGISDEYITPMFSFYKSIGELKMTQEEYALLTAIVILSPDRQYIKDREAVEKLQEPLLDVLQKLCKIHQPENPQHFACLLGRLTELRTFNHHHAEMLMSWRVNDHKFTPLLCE

Compound: O=C(O)c1ccc2c(c1)Oc1ccc(OCc3c(-c4c(Cl)cccc4Cl)noc3C3CC3)nc1C(C(F)(F)F)C2 (centres unmarked) [Example 8, 2-((5-cyclopropyl-3-(2,6-dichlorophenyl)isoxazol-4-yl)methoxy)-11-(trifluoromethyl)-10,11-dihydrobenzo[6,7]oxepino[3,2-b]pyridine-7-carboxylic acid]
EC50 [1]: 26 nM

Compound: O=C(O)c1ccc2c(c1)Oc1ccc(OCc3c(-c4c(Cl)cccc4Cl)noc3C3CC3)nc1C(F)(F)C2O (centres unmarked) [Example 12, 2-((5-cyclopropyl-3-(2,6-dichlorophenyl)isoxazol-4-yl)methoxy)-11,11-difluoro-10-hydroxy-10,11-dihydrobenzo[6,7]oxepino[3,2-b]pyridine-7-carboxylic acid]
EC50 [1]: 136 nM

Compound: CC1=Cc2ccc(C(=O)O)cc2Oc2ccc(OCc3c(C4CC4)cnn3-c3c(Cl)cccc3Cl)nc21 [Example 15, 2-((4-cyclopropyl-1-(2,6-dichlorophenyl)-1H-pyrazol-5-yl)methoxy)-11-methylbenzo[6,7]oxepino[3,2-b]pyridine-7-carboxylic acid]
EC50 [1]: 13 nM

Compound: O=C(O)c1ccc2c(c1)Oc1ccc(OCc3c(-c4c(Cl)cccc4Cl)noc3C3CC3)nc1C(C1CC1)C2 (centres unmarked) [Example 17, 11-cyclopropyl-2-((5-cyclopropyl-3-(2,6-dichlorophenyl)isoxazol-4-yl)methoxy)-10,11-dihydrobenzo[6,7]oxepino[3,2-b]pyridine-7-carboxylic acid]
EC50 [1]: 65 nM

Compound: CC1=Cc2nc(OCc3c(-c4c(Cl)cccc4Cl)noc3C3CC3)ccc2Oc2cc(C(=O)O)ccc21 [Example 18, 2-((5-cyclopropyl-3-(2,6-dichlorophenyl)isoxazol-4-yl)methoxy)-10-methylbenzo[6,7]oxepino[3,2-b]pyridine-7-carboxylic acid]
EC50 [1]: 93 nM

Compounds with a lower EC50 [1], results first:

EC50 [1]: 2 nM
Compound: O=C(O)c1ccc2c(c1)Oc1ccc(OCc3c(-c4c(Cl)cccc4Cl)noc3C3CC3)nc1C1(CC1)C2 [Example 9, 2-((5-cyclopropyl-3-(2,6-dichlorophenyl)isoxazol-4-yl)methoxy)-10H-spiro[benzo[6,7]oxepino[3,2-b]pyridine-11,1′-cyclopropane]-7-carboxylic acid]

EC50 [1]: 12 nM
AUC(0-inf) ([2]; iv 1 mg/kg): 1330 ng·h/mL
AUC(0-t) ([2]; iv 1 mg/kg): 1330 ng·h/mL
Cmax ([2]; iv 1 mg/kg): 3020 ng/mL
MRT inf ([2]; iv 1 mg/kg): 25.7 min
Tmax ([2]; iv 1 mg/kg): 4.98 min
clearance ([2]; iv 1 mg/kg): 12.6 mL/min/kg
half-life ([2]; iv 1 mg/kg): 47.6 min
Vd ([2]; iv 1 mg/kg, read-out: Vss): 0.322 L/kg
AUC(0-inf) ([2]; po 5 mg/kg): 5840 ng·h/mL
AUC(0-t) ([2]; po 5 mg/kg): 5790 ng·h/mL
Cmax ([2]; po 5 mg/kg): 3760 ng/mL
MRT inf ([2]; po 5 mg/kg): 82.8 min
Tmax ([2]; po 5 mg/kg): 30 min
half-life ([2]; po 5 mg/kg): 57.4 min
bioavailability ([2]; po 5 mg/kg vs iv 1 mg/kg): 88%
Compound: O=C(O)c1ccc2c(c1)Oc1ccc(OCc3c(-c4c(Cl)cccc4Cl)noc3C3CC3)nc1C(F)(F)C2 [Example 10, 2-((5-cyclopropyl-3-(2,6-dichlorophenyl)isoxazol-4-yl)methoxy)-11,11-difluoro-10,11-dihydrobenzo[6,7]oxepino[3,2-b]pyridine-7-carboxylic acid]

EC50 [1]: 5 nM
Compound: O=C(O)c1ccc2c(c1)Oc1ccc(OCc3c(-c4c(Cl)cccc4Cl)noc3C3CC3)nc1C(C1CC1)=C2 [Example 16, 11-cyclopropyl-2-((5-cyclopropyl-3-(2,6-dichlorophenyl)isoxazol-4-yl)methoxy)benzo[6,7]oxepino[3,2-b]pyridine-7-carboxylic acid]
